Data taken from patent publication US10493158B2, “Pharmaceutical compositions for the treatment of inflammatory disorders” (GALAPAGOS NV, priority 2014, dated 2019).
Where a name gives a salt, the structure may show the parent alone.

Tests used:
[1] = Dog bioavailability study (PK after single oral administration of capsules); format: in vivo, beagle dogs; details: for Cmax / Exposure AUC / Tmax: listed as HCl•trihydrate
Protocol: The dogs are not fasted before dosing, and have free access to water. Every day of the treatment, a half food ration is provided after the T0 blood sampling, 8 to 17 min before treatment, and the second half ration is given just after dosing or 1 h after treatment for period 2. A 3 days washout period is ensured between treatments.
The capsule composition is described in the table below.
The capsules are administered orally with water (5-10 mL), to provide good oesophageal transit. Each animal is checked at least once daily.
Blood is collected from the jugular vein into lithium heparinised tubes at T0 (before food administration) and then at 1 h, 2 h, 4 h, 6 h, 8 h, 10 h, and 24 h post treatment.
Plasma is then obtained from blood by centrifugation (2500 g for 10 min at 4° C.), and stored at −20° C. until analysis.
After vortex mixing and centrifugation at 4° C., the supernatants are diluted with a 0.5 volume of HPLC grade water in a midi-eppendorf 96-well plate. The plate is sealed and shaken to ensure sample homogeneity prior to analysis.
Pharmacokinetic analysis is performed using WinNonlin™ software version 5.3, using concentrations from individual animals. Non-compartmental analysis is applied to determine the PK parameters (Cmax, Tmax, AUC0-last, t1/2, etc . . . )
Concentrations below the limit of detection are set to zero for descriptive statistics and PK parameter calculations.

[2] = Accelerated stability study of Compound 1.HCl.3H2O (FT-IR, DSC, XRPD); format: physicochemical; details: 3 months
Description: Samples of [Compound 1. HCl.3H2O] are stored under conditions to evaluate chemical stability and physical stability as described in the table below: [table] Samples are taken at T0, then every month up to 3 months, and analysed by FT-IR, DSC, and XRPD.

[3] = Thermodynamic aqueous solubility by HPLC; format: physicochemical; details: water
Protocol: (§1) The mixture is cooled to 25° C. at 1° C./min and stirred at 25° C. for 22 h. The solid is isolated by vacuum filtration and dried under suction.

[4] = Salt study: XRPD analysis / hygroscopicity of the hydrochloric acid salt; format: physicochemical; details: salt containing 4-5% water
Protocol: as §1

[5] = dogs, oral capsules, on average and at the 2 capsule strengths
[6] = male beagle dogs, single oral administration, capsules, dose 25 mg/kg
[7] = male beagle dogs, single oral administration, capsules, dose 100 mg/kg

**Q.** With O=C(Nc1nc2cccc(-c3ccc(CN4CCS(=O)(=O)CC4)cc3)n2n1)C1CC1 [Compound 1, cyclopropanecarboxylic acid {5-[4-(1,1-dioxo-thiomorpholin-4-ylmethyl)-phenyl]-[1,2,4]triazolo[1,5-a]pyridin-2-yl}-amide] as the molecule, how does the AUC ([1]; male, beagle, dog, plasma, po, 100 mg/kg, male beagle dogs, single oral administration, capsules, dose 100 mg/kg, read-out: Exposure AUC) read?
**A.** 11100 ng·h/mL

**Q.** Which results are given for O=C(Nc1nc2cccc(-c3ccc(CN4CCS(=O)(=O)CC4)cc3)n2n1)C1CC1 [Compound 1.HCl.3H2O, cyclopropanecarboxylic acid {5-[4-(1,1-dioxo-thiomorpholin-4-ylmethyl)-phenyl]-[1,2,4]triazolo[1,5-a]pyridin-2-yl}-amide]?
**A.** half-life ([1]; dog, plasma, male beagle dogs, single oral administration, one range printed across both forms and both doses): 4.43 to 8.96 h; in vivo exposure compared with Compound 1 (free base) [1, 5]: improved exposure; rate of absorption compared with Compound 1 (free base) [1, 5]: more rapidly absorbed; Cmax [1, 6]: 3050 ng/mL; Exposure AUC [1, 6]: 33600 ng·h/mL; Tmax [1, 6]: 2.0 h; Cmax [1, 7]: 2630 ng/mL; Exposure AUC [1, 7]: 21700 ng·h/mL; Tmax [1, 7]: 2.0 h; chemical and physical stability ([2]; 25° C./60% RH open, 40° C./75% RH open, 50° C. closed, RT/<5%, 56%, 75% RH open): stable under all conditions; change in crystallinity ([2]; all storage conditions of Table VI): no change in crystallinity

**Q.** Which solubility [3] does the source give for O=C(Nc1nc2cccc(-c3ccc(CN4CCS(=O)(=O)CC4)cc3)n2n1)C1CC1 [hydrochloric acid salt of Compound 1, cyclopropanecarboxylic acid {5-[4-(1,1-dioxo-thiomorpholin-4-ylmethyl)-phenyl]-[1,2,4]triazolo[1,5-a]pyridin-2-yl}-amide] here?
**A.** 1900 µg/mL

**Q.** And the “hygroscopicity of the salt” value [4]?
**A.** non-hygroscopic
